According to patent EP0574185B1, “PGE1 analogs” (NEWPHARMA INTERNATIONAL CORPORATION, priority 1992, dated 1993):
Where two headings read alike, the source gives them in different places.

What was measured:
Beagle dogs = assay: Volume and acidity of histamine stimulated gastric secretion in dogs (gastric fistula); format: in vivo
Protocol: Healthy adult Beagle dogs weighing 10 kg to 13 kg were used.
The basal response of each dog to histamine, as represented by volume of gastric secretion and acid concentration, was carried out six times. For this purpose the dogs were placed in a Pavlov support and plastic bottles were connected to a Thomas type gastric fistula after cleaning it when necessary.
Saline i.v. infusion was started by means of a Butterfly G 21 (Abbott) needle connected to a 500 ml bottle of sterile pyrogen free isotonic saline solution through an inert plastic cannula. The solution dripping was adjusted to 1 ml/min.
The volume of gastric secretion obtained from fifteen minutes collection periods, expressed as ml/15 min, was determined. Aliquots of 5 ml were kept in the freezer to perform acid titration on the next day. The first three collection periods were considered as the actual basal gastric secretion for each dog in the absence of any drug. Then the bottle of saline was changed for a solution of histamine. 2HCl at a concentration of […] in saline. The dripping was adjusted to 20 drops per minute (984 µg histamine/hour) After the plateau of augmented gastric secretion was reached, B-407 was administered.
Acid concentration, expressed as mEq H+/l was determined by titration with sodium hydroxide.

Swiss female mice = assay: Barbiturate sleeping time in mice; format: in vivo; conditions: 100 µg/kg,ip, 15 min before pentobarbital sodium 30 mg/kg i.p., n= 12
Protocol: The effect of B-407 on the time of induction and time of duration of the barbiturate sleeping time was evaluated by determining the time of loss and recovery of the righting reflex. This was carried out in Swiss female mice weighing 20 g to 25 g.
Two groups of 12 mice each were used. One group was treated with B-407 (100 µg/kg, i.p.). Fifteen minutes later, pentobarbital sodium (30 mg/kg, i.p.) was administered. The time of onset (the loss of the righting reflex) and of duration (the elapsed time from the loss of the righting reflex up to its recovery from the barbiturate-induced sleeping) were determined. Full recovery of the righting reflex was assumed when the animal, placed on its back, could recover its normal position at least 3 times during one minute. The control mice group followed the same protocol, but received saline solution instead B-407. The results were expressed as the average ± standard error of each group and the statistical significance of the differences were evaluated by means of the Student's-t-test.

[1] = Diarrheagenic effect in mice; design: species or system Swiss mice; conditions: mouse, in vivo
Protocol: The diarrheagenic effect of the synthetic PGE1 analog B-407 was evaluated in Swiss mice. The effect of the intraperitoneal and intravaginal routes of administration were studied as follows:
Six groups of ten mice (25 to 30 g) each (5 ♂ and 5 ♀) were used. They received i.p. doses of 0; 1; 3; 10; 30 and 100 µg/kg of the test drug. The diarrheagenic response was evaluated on an "all-or-none" basis as described in section C.
A seven points dose-response curve was performed for B-407. Eight groups of six mice (18 to 25 g) each received doses of 0; 10; 18; 32; 56; 100; 160 and 250 µg/kg of B-407.
The intravaginal administration was made through a polyethylene catheter attached to a 1 ml syringe. This system allows the delivery of volumes of 10 to 15 µl.
The animals were evaluated in an "all-or-none" basis as the ratio of the number of animals with diarrhea over the total number of mice in the group. The median effective doses (ED50) with their fiducial limits and the statistics were performed according Litchfield and Wilcoxon [Eur. J. Pharmacol. 34, 105 (1975); J. Pharmacol. Exp. Ther., 96, 99 (1949)].

[2] = system: isolated rat uterus under diestrous condition; assay: B1: effect on isolated uterus of diestrous rat with basal spontaneous contractions (cumulative curves, Krebs solution); design: species or system Wistar rats; conditions: basal 5,85
Protocol: (B1)- Concentration-response curves on isolated rat uterus under diestrous condition were carried out. Wistar rats weighing 250 g to 300 g were employed. The diestrous phase was detected by a daily vaginal smear. The uterus was dissected out and a portion of a horn was placed in a 10 ml organ bath in a similar way to that described in part A. The bath temperature was maintained at 37°C, bubbled with a mixture of 95 % O2 and 5 % CO2 in a Krebs nutrient solution. The organ was left to stabilize for one hour. The isolated uterus presented basal spontaneous contractions under these experimental conditions. Cumulative concentration-response curves were carried out with the addition of either 100 µl or 300 µl of solutions of either natural prostaglandins or B-407 in concentrations of 10^-10 M to 10^-6 M, each 15 minutes without any washing. Uterine contractions and quantitation were performed as described in (A). (B2)- Concentration-response curves in isolated uterus under diestrous (without any spontaneous contractions) were carried out. Sodium diclofenac was added to De Jalon nutrient solution to a final concentration of 4x10^-6 M. The organ was left to stabilize until the absence of spontaneous contractions. Non-cumulative concentration-response curves were obtained. Recordings of the contractions and their quantitation were performed as described in (A).
The frequency and magnitude of the responses were globally evaluated by calculating the total area recorded at a fixed time period as will be further explained. The areas under the curve of the recording paper, over 15 minutes periods, were cut and weighed both in the concentration-response curves and in the potentiating experiments.
The calibration was made by weighing a piece of paper which corresponded to a tension of 1 g at the working sensitivity along 2 minutes. Therefore, a relationship of area expressed in g/2 min was obtained and then the weights of the areas of the responses were transformed to unities of area. The results were expressed as the mean ± the standard error of the areas obtained. The statistical evaluation of the differences was carried out either by ANOVA or by Student's-t-test, as appropriate.

[3] = Canis lupus familiaris, iv, read-out: VOLUME % Inhib.

Structure (SMILES): CCCCC(C)(O)C/C=C/[C@H]1[C@H](O)CC(=O)[C@@H]1CCCC/C=C/C(=O)OC (mixture of isomers) [B-407, trans-Δ^2-15-deoxy-16-hydroxy-16-methyl PGE1 methyl ester]
- inhibition at 0.003 mg/kg (Beagle dogs; Canis lupus familiaris, iv, read-out: ACIDITY % Inhib): 59.7%
- inhibition at 0.001 mg/kg (Beagle dogs; [3]): 15.2%
- inhibition at 0.003 mg/kg (Beagle dogs; [3]): 93.7%
- ACIDITY % Inhib (Beagle dogs; i.g. 10 µg/kg): 42,5%
- VOLUME % Inhib. (Beagle dogs; i.g. 10 µg/kg): 24,3%
- VOLUME Max.eff. B-407 (Beagle dogs; i.g. 10 µg/kg, histamine plateau 42,0±3,6): 31,8±6,2 ml/15min
- ACIDITY Max.Eff. B-407 (Beagle dogs; i.g. 10 µg/kg, histamine plateau 122,4±9,7): 70,4±11,8 mEq.H^+/l
- ACIDITY % Inhib (Beagle dogs; i.g. 30 µg/kg): 31,8%
- VOLUME % Inhib. (Beagle dogs; i.g. 30 µg/kg): 36,3%
- VOLUME Max.eff. B-407 (Beagle dogs; i.g. 30 µg/kg, histamine plateau 38,3±2,6): 24,4±3,1 ml/15min
- ACIDITY Max.Eff. B-407 (Beagle dogs; i.g. 30 µg/kg, histamine plateau 143,4±3,2): 97,8±13,2 mEq.H^+/l
- VOLUME Max.eff. B-407 (Beagle dogs; i.v. 1 µg/kg, histamine plateau 39,5±3,4): 33,5±3,6 ml/15min
- VOLUME Max.eff. B-407 (Beagle dogs; i.v. 3 µg/kg, histamine plateau 43,2±4,6): 2,7±1,3 ml/15min
- ACIDITY Max.Eff. B-407 (Beagle dogs; i.v. 3 µg/kg, histamine plateau 145,3±3,0): 58,5±16,0 mEq.H^+/l
- VOLUME % Inhib. (Beagle dogs; i.vag 10 µg/kg (n=3)): 100,0%
- VOLUME Max.eff. B-407 (Beagle dogs; i.vag 10 µg/kg (n=3), histamine plateau 43,0±2,0): 0,0 ml/15min
- ACIDITY % Inhib (Beagle dogs; i.vag 30 µg/kg (n=2)): 67,3%
- VOLUME % Inhib. (Beagle dogs; i.vag 30 µg/kg (n=2)): 93,8%
- VOLUME Max.eff. B-407 (Beagle dogs; i.vag 30 µg/kg (n=2), histamine plateau 38,5±8,5): 2,4±1,7 ml/15min
- ACIDITY Max.Eff. B-407 (Beagle dogs; i.vag 30 µg/kg (n=2), histamine plateau 118,9±4,3): 38,9±19,9 mEq.H^+/l
- ACIDITY % Inhib (Beagle dogs; i.vag. 1 µg/kg): 24,4%
- VOLUME % Inhib. (Beagle dogs; i.vag. 1 µg/kg): 30,5%
- VOLUME Max.eff. B-407 (Beagle dogs; i.vag. 1 µg/kg, histamine plateau 50,8±2,4): 35,3±5,3 ml/15min
- ACIDITY Max.Eff. B-407 (Beagle dogs; i.vag. 1 µg/kg, histamine plateau 134,2±6,4): 101,4±13,3 mEq.H^+/l
- ACIDITY % Inhib (Beagle dogs; i.vag. 3 µg/kg): 71,5%
- VOLUME % Inhib. (Beagle dogs; i.vag. 3 µg/kg): 98,4%
- VOLUME Max.eff. B-407 (Beagle dogs; i.vag. 3 µg/kg, histamine plateau 49,1±2,5): 0,8±0,4 ml/15min
- ACIDITY Max.Eff. B-407 (Beagle dogs; i.vag. 3 µg/kg, histamine plateau 132,6±8,7): 37,8±12,7 mEq.H^+/l
- Induction time (Swiss female mice; control 4,52 ± 0,22, p < 0,02): 3,75 ± 0,19 min
- Sleeping time (Swiss female mice; control 27,8 ± 3,10, n.s.): 29,7 ± 2,91 min
- ED50 ([1]; ip, confidence limits 1,95 to 8,65, n 10): 0.00412 mg/kg
- ED50 ([1]; i.vag., confidence limits 27,4 to 124,9, n 6): 0.0583 mg/kg
- Area (g of tension/2 min) ([2]; 1x10^-6 M): 6,46 g of tension/2 min
- Area (g of tension/2 min) ([2]; 1x10^-7 M): 7,38 g of tension/2 min
- Area (g of tension/2 min) ([2]; 1x10^-8 M): 6,88 g of tension/2 min
- Area (g of tension/2 min) ([2]; 1x10^-9 M): 6,14 g of tension/2 min
